Measured values published in the pKa sets of Baltruschat and Czodrowski (2020).

Settings: acidic group

Compound	pKa
COc1nc(-n2nc(C)cc2O)nc(C)c1C	7.64
O=C(O)/C=C\c1cccc([N+](=O)[O-])c1	3.63
O=C1Cc2c1cc([N+](=O)[O-])c(O)c2Br	2.88
O=C(O)CC1CCCCO1 (stereo unspecified)	4.39
O=C([O-])[C@@H](NCC[NH2+][C@@H](C(=O)[O-])c1ccccc1O)c1ccccc1O	8.76
O=[N+]([O-])c1ccc([Se](=O)O)cc1	4
NC(=O)NOCCC([NH3+])C(=O)O (stereo unspecified)	2.5
O=S(=O)(O)c1cccc(C(F)(F)F)c1	-6.93
O=C(Nc1nnc(-c2ccccc2)s1)c1ccccc1	6.8
C[NH+](C)Cc1cc(Cl)cc(C[NH+](C)C)c1O	5.2
Cc1cnc(C(=O)O)s1	3.03
CS(=O)(=O)Nc1ccc(CC([NH3+])C(=O)O)cc1 (stereo unspecified)	3.15
COc1cccc(C)c1C(=O)O	3.46
NS(=O)(=O)c1ccc(C(=O)O)cc1	3.53
CCCC(=O)NO	9.48
CC([NH3+])c1nnn[nH]1 (stereo unspecified)	2.63
O=P([O-])(O)C([NH2+]Cc1cccnc1)c1ccccc1O (stereo unspecified)	5.15
C[C@H]([NH3+])CCC(=O)O	4.13
CC(C)(C)C(=O)NC(O)C(Cl)(Cl)Cl (stereo unspecified)	14.7
O=C(O)Cc1ccsc1	4.07
CC(C)c1nnn[nH]1	5.55
Oc1cc[nH+]c2ccccc12	2.27
NC(=O)C#CC#C/C=C/C(=O)O	3.52
O=C1NC(=O)C2CCC12 (stereo unspecified)	9.63
O=NNc1nc([N+](=O)[O-])nn1-c1ccccc1	3.33
Nc1nc(O)cc[nH+]1	4.01
N#CC(CC(=O)O)c1ccccc1 (stereo unspecified)	3.79

Same assay, conditions: basic group

Compound	pKa
Cc1cc(N)nc(Nc2ccc(Cl)cc2)n1	6.6
CCC(=O)C(CCN1CCOCC1)(c1ccccc1)c1ccccc1	6.98
COc1ccc(CCN)cc1	9.79
Cc1noc(-c2ccccc2)c1C(=O)O	1.7
NCCC(=O)N[C@@H](Cc1cnc[nH]1)C(=O)[O-]	9.35
CN[C@H]1C[C@@H]1NC	8.73
O=C([O-])[C@@H](NCC[NH2+][C@@H](C(=O)[O-])c1ccccc1O)c1ccccc1O	6.36
Nc1ccc2cnc3ccccc3c2c1	6.88
C=CCN(CC=C)CC=C	8.31
Nc1ccncc1N	9.06
C=CCC(C)(O)CN(CC)CC (stereo unspecified)	9.71
O=C([O-])c1cc2cc(Cn3ccnc3)ccc2o1	7.17
CN1C[C@@H](C(=O)[O-])C[C@@]2(O)c3cccc4[nH]cc(c34)C[C@@H]12	9.2
NC1=[NH+][C@@H](CC(=O)[O-])C(=O)N1CCCC(N)C(=O)[O-] (stereo partly specified)	8.1
CCCNCc1ccc(C)cc1	9.98
CCNc1ccccc1C	4.92
Cc1ccccc1/C(=N\CCC[NH+](C)C)c1cccc2ccccc12	4.14
CCN1[C@@H](C)[C@@H]1C (stereo partly specified)	9.41
COc1cnc2ccccc2n1	0.28
COc1ccc2ccccc2n1	3.17

Compound	pKa
CCN(CC)CC(=O)NC1CCCCC1	8.21
CNCC/C(N)=N/O	9.6
O=[N+]([O-])c1cc(-c2ccccc2)nnc1NCCN1CCOCC1	6.56
NCc1ccc(C(=O)[O-])cc1	9.64
O=P([O-])(O)C([NH2+]Cc1cccnc1)c1ccccc1O (stereo unspecified)	3.14
OCc1ccc(-c2nccc3c2[nH]c2ccccc23)o1	5.7
C[NH+](C)CCCNc1c2ccccc2nc2c(F)ccc([N+](=O)[O-])c12	5.41
OCCCCc1ccncc1	6.01
C#CCCCCN(C)C	9.24
CCCC(=O)OCCN(C)C	8.31
Nc1ncc([N+](=O)[O-])s1	0.61
CCc1ccc(OC)c(C(=O)NC[C@H]2CCCN2CC)c1[O-]	9.54
c1ccc(N=P(c2ccccc2)(c2ccccc2)c2ccccc2)cc1	-0.92
CC(C)C=O	15.7
CCN(Cl)CC	1.02
CC(C)NCCc1ccc([O-])cc1	10.8
Cc1ccc(C2CCC[NH+]2C)cn1 (stereo unspecified)	3.78
C=CCCN1C[C@H]2C[C@@H](C1)c1cccc([O-])[n+]1C2	7
CC(=O)n1ccnc1Cc1ncc[nH]1	6.6
